Measurements as given in article PMC5218480 (PLoS ONE, 2017).

Test system: MV-4-11 cells
Test: Gene expression microarray analysis (Affymetrix PrimeView) and GSEA
Format: cell-based, human
Parameters: RFU PODN (11730768_x_at) / Fold change /veh PODN (11730768_x_at) / RFU LINC00158 (11744669_a_at) / Fold change /veh LINC00158 (11744669_a_at) / RFU DUSP10 (11751237_a_at) / Fold change /veh DUSP10 (11751237_a_at) / RFU ID3 (11757404_x_at) / Fold change /veh ID3 (11757404_x_at) / RFU PLEKHG5 (11737974_s_at) / Fold change /veh PLEKHG5 (11737974_s_at) / RFU LRRC4B (11730491_at) / Fold change /veh LRRC4B (11730491_at) / RFU GIMAP4 (11747438_a_at) / Fold change /veh GIMAP4 (11747438_a_at) / RFU KRT8 (11758183_x_at) / Fold change /veh KRT8 (11758183_x_at) / RFU CNN1 (11734310_a_at) / Fold change /veh CNN1 (11734310_a_at) / RFU VPS37D (11726825_at) / Fold change /veh VPS37D (11726825_at) / RFU C10orf10 (11716522_x_at) / Fold change /veh C10orf10 (11716522_x_at) / RFU KIR2DL2 /// KIR2DL4 /// KIR2DL5A /// KIR2DL5B /// KIR2DS1 /// KIR2DS2 /// KIR2DS3 /// KIR2DS4 /// KIR3DL3 /// KIR3DL3 /// KIR3DS1 (11738374_at) / Fold change /veh KIR2DL2 /// KIR2DL4 /// KIR2DL5A /// KIR2DL5B /// KIR2DS1 /// KIR2DS2 /// KIR2DS3 /// KIR2DS4 /// KIR3DL3 /// KIR3DL3 /// KIR3DS1 (11738374_at) / RFU C1QL1 (11718748_at) / Fold change /veh C1QL1 (11718748_at) / RFU TMPRSS4 (11747572_a_at) / Fold change /veh TMPRSS4 (11747572_a_at) / RFU HAMP (11756126_x_at) / Fold change /veh HAMP (11756126_x_at) / RFU RNFT2 (11725882_a_at) / Fold change /veh RNFT2 (11725882_a_at) / RFU NR4A2 (11747474_a_at) / Fold change /veh NR4A2 (11747474_a_at) / RFU ABCC12 (11746883_a_at) / Fold change /veh ABCC12 (11746883_a_at) / RFU TMEM136 (11760407_x_at) / Fold change /veh TMEM136 (11760407_x_at) / RFU CLDN22 /// WWC2 (11732394_at) / Fold change /veh CLDN22 /// WWC2 (11732394_at) / RFU HLA-DPB1 (11760878_x_at) / Fold change /veh HLA-DPB1 (11760878_x_at) / RFU SPINT1 (11716480_a_at) / Fold change /veh SPINT1 (11716480_a_at) / RFU GAP43 (11754022_s_at) / Fold change /veh GAP43 (11754022_s_at) / RFU A4GNT (11735810_at) / Fold change /veh A4GNT (11735810_at) / RFU PRB3 (11715151_x_at) / Fold change /veh PRB3 (11715151_x_at) / RFU TUBB4B (11761932_at) / Fold change /veh TUBB4B (11761932_at) / RFU CAPN14 (11732068_a_at) / Fold change /veh CAPN14 (11732068_a_at) / RFU TMCC2 (11721928_a_at) / Fold change /veh TMCC2 (11721928_a_at) / RFU IRGQ (11745062_a_at) / Fold change /veh IRGQ (11745062_a_at) / RFU FAM174B (11720279_a_at) / Fold change /veh FAM174B (11720279_a_at) / RFU TMPRSS4 (11748680_a_at) / Fold change /veh TMPRSS4 (11748680_a_at) / RFU FAM212B (11763350_a_at) / Fold change /veh FAM212B (11763350_a_at) / RFU PLEKHG5 (11743358_a_at) / Fold change /veh PLEKHG5 (11743358_a_at) / RFU ZSCAN30 (11745921_a_at) / Fold change /veh ZSCAN30 (11745921_a_at) / RFU CMKLR1 (11741424_a_at) / Fold change /veh CMKLR1 (11741424_a_at) / RFU LOC101060620 /// MAPK8IP1 (11723275_at) / Fold change /veh LOC101060620 /// MAPK8IP1 (11723275_at) / RFU SPTSSB (11747773_x_at) / Fold change /veh SPTSSB (11747773_x_at) / RFU PRSS12 (11739890_at) / Fold change /veh PRSS12 (11739890_at) / RFU BIN1 (11741810_x_at) / Fold change /veh BIN1 (11741810_x_at) / RFU WNT11 (11732464_a_at) / Fold change /veh WNT11 (11732464_a_at) / RFU C10orf10 (11716521_a_at) / Fold change /veh C10orf10 (11716521_a_at) / RFU C5orf56 (11738089_at) / Fold change /veh C5orf56 (11738089_at) / RFU CYB561 (11721691_x_at) / Fold change /veh CYB561 (11721691_x_at) / RFU ANKRD19P (11752326_a_at) / Fold change /veh ANKRD19P (11752326_a_at) / RFU OR2T12 /// OR2T33 /// OR2T8 (11738714_s_at) / Fold change /veh OR2T12 /// OR2T33 /// OR2T8 (11738714_s_at) / RFU VCAN (11748164_a_at) / Fold change /veh VCAN (11748164_a_at) / RFU JSRP1 (11732532_at) / Fold change /veh JSRP1 (11732532_at) / RFU KRTAP10-11 (11738290_x_at) / Fold change /veh KRTAP10-11 (11738290_x_at) / RFU MYO3A (11730013_a_at) / Fold change /veh MYO3A (11730013_a_at) / RFU EBF3 (11725865_a_at) / Fold change /veh EBF3 (11725865_a_at) / RFU CAMK2N1 (11719241_x_at) / Fold change /veh CAMK2N1 (11719241_x_at) / RFU C5orf56 (11738088_a_at) / Fold change /veh C5orf56 (11738088_a_at) / RFU OLFML3 (11715873_a_at) / Fold change /veh OLFML3 (11715873_a_at) / RFU LOC100653217 /// NTM (11731650_a_at) / Fold change /veh LOC100653217 /// NTM (11731650_a_at) / RFU MAPK11 (11762145_a_at) / Fold change /veh MAPK11 (11762145_a_at) / RFU FIZ1 (11724087_x_at) / Fold change /veh FIZ1 (11724087_x_at) / RFU OASL (11726364_x_at) / Fold change /veh OASL (11726364_x_at) / RFU SOX15 (11748057_x_at) / Fold change /veh SOX15 (11748057_x_at) / RFU CD79A (11719716_a_at) / Fold change /veh CD79A (11719716_a_at) / RFU HIST1H1D (11736915_at) / Fold change /veh HIST1H1D (11736915_at) / RFU CASKIN2 (11723855_a_at) / Fold change /veh CASKIN2 (11723855_a_at) / RFU LOC730098 (11760151_x_at) / Fold change /veh LOC730098 (11760151_x_at) / RFU OR4N2 (11742367_at) / Fold change /veh OR4N2 (11742367_at) / RFU PRRT2 (11749266_a_at) / Fold change /veh PRRT2 (11749266_a_at) / RFU SNX32 (11753110_a_at) / Fold change /veh SNX32 (11753110_a_at) / RFU CDHR5 (11726645_a_at) / Fold change /veh CDHR5 (11726645_a_at) / RFU RCAN1 (11760418_a_at) / Fold change /veh RCAN1 (11760418_a_at) / RFU FAM167A (11723789_a_at) / Fold change /veh FAM167A (11723789_a_at) / RFU FAM26E (11764081_at) / Fold change /veh FAM26E (11764081_at) / RFU ISYNA1 (11749810_s_at) / Fold change /veh ISYNA1 (11749810_s_at) / RFU ACY1 (11761880_at) / Fold change /veh ACY1 (11761880_at) / RFU 11764098_at / Fold change /veh 11764098_at / RFU SAMD14 (11745864_x_at) / Fold change /veh SAMD14 (11745864_x_at) / RFU NPB (11741838_a_at) / Fold change /veh NPB (11741838_a_at) / RFU TMPRSS6 (11731388_a_at) / Fold change /veh TMPRSS6 (11731388_a_at) / RFU KRTAP10-2 (11738614_at) / Fold change /veh KRTAP10-2 (11738614_at) / RFU ARHGAP8 /// PRR5-ARHGAP8 (11727945_x_at) / Fold change /veh ARHGAP8 /// PRR5-ARHGAP8 (11727945_x_at) / RFU KRTAP5-7 /// NADSYN1 (11734609_at) / Fold change /veh KRTAP5-7 /// NADSYN1 (11734609_at) / RFU RASL12 (11751679_a_at) / Fold change /veh RASL12 (11751679_a_at) / RFU CDKN2B (11736163_a_at) / Fold change /veh CDKN2B (11736163_a_at) / RFU PRF1 (11729649_at) / Fold change /veh PRF1 (11729649_at) / RFU, ZNF638 /// ZNF638-IT1 / Fold change vs veh, ZNF638 /// ZNF638-IT1 / RFU, PANK3 / Fold change vs veh, PANK3 / RFU, SH3YL1 / Fold change vs veh, SH3YL1 / RFU, ZEB2 / Fold change vs veh, ZEB2 / RFU, NRIP1 / Fold change vs veh, NRIP1 / RFU, PTTG1IP / Fold change vs veh, PTTG1IP / RFU, CAPN2 / Fold change vs veh, CAPN2 / RFU, MED14 / Fold change vs veh, MED14 / RFU, SNORA58 / Fold change vs veh, SNORA58 / RFU, C1orf63 / Fold change vs veh, C1orf63 / RFU, LRRFIP1 / Fold change vs veh, LRRFIP1 / RFU, NDUFAF7 / Fold change vs veh, NDUFAF7 / RFU, SLC12A2 / Fold change vs veh, SLC12A2 / RFU, IBTK / Fold change vs veh, IBTK / RFU, ESF1 / Fold change vs veh, ESF1 / Fold change vs veh, TMEM50B / RFU, TAOK1 / Fold change vs veh, TAOK1 / RFU, ACBD3 / Fold change vs veh, ACBD3 / RFU, TMA16 / Fold change vs veh, TMA16 / RFU, RWDD3 / Fold change vs veh, RWDD3 / RFU, BCAT1 / Fold change vs veh, BCAT1 / RFU, EDEM3 / Fold change vs veh, EDEM3 / RFU, TMEM33 / Fold change vs veh, TMEM33 / RFU, WDR75 / Fold change vs veh, WDR75 / RFU, AHCTF1 / Fold change vs veh, AHCTF1 / RFU, TFRC / Fold change vs veh, TFRC / RFU, ZDHHC17 / Fold change vs veh, ZDHHC17 / RFU, NOM1 / Fold change vs veh, NOM1 / RFU, ARL8B / Fold change vs veh, ARL8B / RFU, ZBTB11 / Fold change vs veh, ZBTB11 / RFU, TAMM41 / Fold change vs veh, TAMM41 / RFU, KIAA1704 /// LOC100996395 / Fold change vs veh, KIAA1704 /// LOC100996395 / RFU, ING1 / Fold change vs veh, ING1 / RFU, TRMT61B / Fold change vs veh, TRMT61B / RFU, FUBP3 / Fold change vs veh, FUBP3 / RFU, TP53 / Fold change vs veh, TP53 / RFU, TNKS2 / Fold change vs veh, TNKS2 / RFU, ZFP14 / Fold change vs veh, ZFP14 / RFU, ACTR2 / Fold change vs veh, ACTR2 / RFU, PPP3R1 / Fold change vs veh, PPP3R1 / RFU, PIK3R1 / Fold change vs veh, PIK3R1 / RFU, HNRNPA1 / Fold change vs veh, HNRNPA1 / RFU, RNF170 / Fold change vs veh, RNF170 / RFU, ZNF28 / Fold change vs veh, ZNF28 / RFU, RNGTT / Fold change vs veh, RNGTT / RFU, OGT / Fold change vs veh, OGT / RFU, BRD1 / Fold change vs veh, BRD1 / RFU, MARS / Fold change vs veh, MARS / RFU, ZNF655 / Fold change vs veh, ZNF655 / RFU, FAHD1 / Fold change vs veh, FAHD1 / RFU, BDP1 / Fold change vs veh, BDP1 / RFU, LRRCC1 / Fold change vs veh, LRRCC1 / RFU, ARID1A / Fold change vs veh, ARID1A / RFU, ZNF146 / Fold change vs veh, ZNF146 / RFU, ZNF330 / Fold change vs veh, ZNF330 / RFU, GPN3 / Fold change vs veh, GPN3 / RFU, C9orf123 / Fold change vs veh, C9orf123 / RFU, N4BP2L2 / Fold change vs veh, N4BP2L2 / RFU, ARFIP1 / Fold change vs veh, ARFIP1 / RFU, FAM179B / Fold change vs veh, FAM179B / RFU, BCL10 / Fold change vs veh, BCL10 / RFU, UHRF1BP1L / Fold change vs veh, UHRF1BP1L / RFU, BET1 / Fold change vs veh, BET1 / RFU, CNOT2 / Fold change vs veh, CNOT2 / RFU, ZNF268 / Fold change vs veh, ZNF268 / Fold change vs veh, ZNF507 / RFU, DGCR2 / Fold change vs veh, DGCR2 / RFU, WDSUB1 / Fold change vs veh, WDSUB1 / Fold change vs veh, HSP90B1 /// MIR3652 / RFU, ADSS / Fold change vs veh, ADSS / RFU, GK / Fold change vs veh, GK / RFU, ZNF148 / Fold change vs veh, ZNF148 / RFU, TAF9 / Fold change vs veh, TAF9 / RFU, SLC1A5 / Fold change vs veh, SLC1A5 / RFU, SLMO2 / Fold change vs veh, SLMO2 / RFU, ABCC4 / Fold change vs veh, ABCC4 / RFU, LOC101060439 /// RAP1B / Fold change vs veh, LOC101060439 /// RAP1B / RFU, RFX7 / Fold change vs veh, RFX7 / RFU, GTPBP10 / Fold change vs veh, GTPBP10 / RFU, CNEP1R1 / Fold change vs veh, CNEP1R1 / RFU, BIVM-ERCC5 /// ERCC5 / Fold change vs veh, BIVM-ERCC5 /// ERCC5 / RFU, ILF3 / Fold change vs veh, ILF3 / RFU 11762660_at / Fold change /veh 11762660_at / RFU VCAN (11757783_s_at) / Fold change /veh VCAN (11757783_s_at) / RFU DDX43 (11728927_at) / Fold change /veh DDX43 (11728927_at) / RFU KRT8 (11758188_x_at) / Fold change /veh KRT8 (11758188_x_at) / RFU NKD1 (11759106_at) / Fold change /veh NKD1 (11759106_at) / RFU SRD5A1 (11742802_a_at) / Fold change /veh SRD5A1 (11742802_a_at) / RFU TPSAB1 /// TPSB2 (11721975_s_at) / Fold change /veh TPSAB1 /// TPSB2 (11721975_s_at) / RFU GSTM3 (11746129_a_at) / Fold change /veh GSTM3 (11746129_a_at) / RFU IL23R (11737362_x_at) / Fold change /veh IL23R (11737362_x_at) / RFU TMEM51 (11727254_a_at) / Fold change /veh TMEM51 (11727254_a_at) / RFU PIWIL2 (11732686_x_at) / Fold change /veh PIWIL2 (11732686_x_at) / RFU ORM1 (11744905_x_at) / Fold change /veh ORM1 (11744905_x_at) / RFU CCDC152 (11743942_at) / Fold change /veh CCDC152 (11743942_at) / RFU ECM1 (11717891_a_at) / Fold change /veh ECM1 (11717891_a_at) / RFU IL23R (11748794_a_at) / Fold change /veh IL23R (11748794_a_at) / RFU TNFAIP8L3 (11732012_x_at) / Fold change /veh TNFAIP8L3 (11732012_x_at) / RFU MBOAT4 (11741988_at) / Fold change /veh MBOAT4 (11741988_at) / RFU 11764193_at / Fold change /veh 11764193_at / RFU TMEM53 (11763286_at) / Fold change /veh TMEM53 (11763286_at) / RFU MAGEB2 (11727129_at) / Fold change /veh MAGEB2 (11727129_at) / RFU TMEM200A (11744735_a_at) / Fold change /veh TMEM200A (11744735_a_at) / RFU CCDC152 (11751479_a_at) / Fold change /veh CCDC152 (11751479_a_at) / RFU FAM211A (11726209_a_at) / Fold change /veh FAM211A (11726209_a_at) / RFU RGS16 (11746705_a_at) / Fold change /veh RGS16 (11746705_a_at) / RFU VCAN (11755009_s_at) / Fold change /veh VCAN (11755009_s_at) / RFU RHOB (11743442_s_at) / Fold change /veh RHOB (11743442_s_at) / RFU RGS16 (11720943_a_at) / Fold change /veh RGS16 (11720943_a_at) / RFU RGS16 (11720944_at) / Fold change /veh RGS16 (11720944_at) / RFU, VPS4B / Fold change vs veh, VPS4B / RFU, CREB1 / Fold change vs veh, CREB1 / RFU, DNAJC13 / Fold change vs veh, DNAJC13 / RFU, GNAQ / Fold change vs veh, GNAQ / RFU, CDK5R1 / Fold change vs veh, CDK5R1 / RFU, ZRANB3 / Fold change vs veh, ZRANB3 / RFU, CUL4A / Fold change vs veh, CUL4A / RFU, CCNY / Fold change vs veh, CCNY / RFU, UFL1 / Fold change vs veh, UFL1 / RFU, COG3 / Fold change vs veh, COG3 / RFU, DIAPH2 / Fold change vs veh, DIAPH2 / RFU, SKA2 / Fold change vs veh, SKA2 / RFU, AFF3 / Fold change vs veh, AFF3 / RFU, LMF1 / Fold change vs veh, LMF1 / RFU, IPO11 / Fold change vs veh, IPO11 / RFU, DFFB / Fold change vs veh, DFFB / RFU, FOXP1 / Fold change vs veh, FOXP1 / RFU, CARD8 / Fold change vs veh, CARD8 / RFU, STRN3 / Fold change vs veh, STRN3 / RFU, ADK / Fold change vs veh, ADK / RFU, RASSF2 / Fold change vs veh, RASSF2 / RFU, WIPF1 / Fold change vs veh, WIPF1 / RFU, LARP1B / Fold change vs veh, LARP1B / RFU, RASA1 / Fold change vs veh, RASA1 / RFU, RB1 / Fold change vs veh, RB1 / RFU, PPFIA1 / Fold change vs veh, PPFIA1 / RFU, MAT2A / Fold change vs veh, MAT2A / RFU, CCT5 / Fold change vs veh, CCT5 / RFU, WDR92 / Fold change vs veh, WDR92 / RFU, CUX1 / Fold change vs veh, CUX1 / RFU, TTC7A / Fold change vs veh, TTC7A / RFU, TMEM135 / Fold change vs veh, TMEM135 / RFU, DEPTOR / Fold change vs veh, DEPTOR / RFU, CPM / Fold change vs veh, CPM / RFU, DNAJB6 / Fold change vs veh, DNAJB6 / RFU, CACNA2D3 / Fold change vs veh, CACNA2D3 / RFU, DTX4 / Fold change vs veh, DTX4 / RFU, TFCP2 / Fold change vs veh, TFCP2 / RFU, GMCL1 /// GMCL1P1 / Fold change vs veh, GMCL1 /// GMCL1P1 / RFU, AEBP2 / Fold change vs veh, AEBP2 / RFU, SNHG1 /// SNORD22 /// SNORD25 /// SNORD26 /// SNORD27 /// SNORD28 /// SNORD29 /// SNORD31 / Fold change vs veh, SNHG1 /// SNORD22 /// SNORD25 /// SNORD26 /// SNORD27 /// SNORD28 /// SNORD29 /// SNORD31 / Fold change (Aza/veh), C12orf56 (ProbeSet 11735607_a_at) / Fold change (ACY-1035/veh), C12orf56 (ProbeSet 11735607_a_at) / Fold change (Aza/veh), FGFR1OP (ProbeSet 11751329_s_at) / Fold change (ACY-1035/veh), FGFR1OP (ProbeSet 11751329_s_at) / Fold change (Aza/veh), VPS36 (ProbeSet 11739960_a_at) / Fold change (ACY-1035/veh), VPS36 (ProbeSet 11739960_a_at) / RFU SYPL1 (11715823_x_at) / Fold change /veh SYPL1 (11715823_x_at) / RFU IGFBP7 (11715501_s_at) / Fold change /veh IGFBP7 (11715501_s_at) / RFU REEP3 (11722064_at) / Fold change /veh REEP3 (11722064_at) / RFU IGLL1 (11728026_x_at) / Fold change /veh IGLL1 (11728026_x_at): dose or concentration left out as unconfirmed
Details: ProbeSet 11748670_a_at; LIST B

SMILES: Nc1ccc(-c2cccs2)cc1NC(=O)c1ccc2c(c1)cc(C1CC1)n2CCN1CCOCC1 [ACY-1035]
- RFU, PIK3R1: 70.67 RFU
